These results are taken from US20020065213A1, “METHODS AND COMPOSITIONS FOR NONVIRAL GENE DELIVERY” (priority 1998, published 2002).

The test system of test [1] is ICR mice. As to the kind of experiment: Host pretreatment before i.v. CLDC or naked DNA, tissue luciferase activity. Type of test: in vivo, mouse. How it is done:
Plasmid: p4241 (HCMV-luciferase, see Liu et al., 1997).
Liposomes: DOTIM:chol MLV in 1:1 molar ratio.
DNA:Liposome Ratio: liposome:plasmid 1:16 (μg plasmid DNA to nanomoles total lipid).
Pretreatment: Individual mice in groups of 5 received either 200 μl of D5W only by IV injection, 1 mg dexamethasone (Sigma) in 200 μl D5W by IV tail vein injection, 250 μg Ticlopidine (Sigma) dissolved in 200 μl D5W by IV injection, 175 μg ammonium chloride (Fisher) dissolved in 1000 μl D5W by IP injection, respectively, four hours before IV injection of CLDC. For 4-APP pretreatment, a group of 5 mice were IP injected with 1.5 mg of 4-Aminopyrazolo(3,4d)-pyrimidine (Sigma, A2630) dissolved in 1 ml 0.01 M sodium phosphate, pH 2.5, daily for three days before receiving an IV injection of p4241-containing CLDC as described above. Another group of 5 mice received 1 ml 0.01 M Sodium Phosphate, pH 2.5 solution by IP injection daily for three days before receiving an injection of IV CLDC as above, thus serving as control for 4-APP pretreatment group.
DNA dose: 40 μg plasmid DNA in 200 μl of 5% dextrose in water (D5@) was injected by tail vein per mouse.
Animals: ICR mice:female, 25 grams (Simonsen Labs, Gilroy, Calif.).
Quantitation of luciferase: Twenty-four hours after injection of CLDC, mice were sacrificed in a CO2 chamber, and lungs, heart, spleen and liver were collected and assayed for luciferase activity. Relative light units were converted to luciferase activity, and an unpaired, two side Student's t test applied for statistical analysis of potential differences between groups as described previously (Liu et al., 1997).
In another experiment, the effect of pretreatment on subsequent expression of the same plasmids delivered as naked DNA was examined. Pretreated animals were injected with 6.25 mg of mannitol (Sigma, MO) in 200 microliters of water 2 hours or 24 hours prior to iv administration of the p4241 luciferase vector as naked DNA in water, 50% glycerol or D5W. Control animals received water alone as a pretreatment. […]

Test [2] has as its system murine B 16 cells. The experiment in a line: Inhibition of in vitro CLDC-mediated transfection (luciferase) by polysaccharide pretreatment.
Test [3] relates to B16 cells. As to the kind of experiment: DNA uptake by cells after CLDC transfection (luciferase, Southern analysis of nuclear and total DNA). Type of test: cell-based, mouse. How it is done: Southern analysis. Isolation of total DNA from mouse tissues was performed as described (Liu et al., 1997). Approximately 2×10^6 B16 cells were cultured in 100 mm dishes for each DNA extraction from cultured cells. Two hundred nanograms of DNA per lane were fractionated on 1% agarose/1X TAE gels overnight. Blotting onto Hybond membrane (Amersham, Arlington Heights, Ill.), prehybridization, hybridization, and washes were performed as described (Sambrook et al., 1989). A 1.2 kb HindIII/EcoRV gel-purified fragment of luciferase from p4241 was radioactively labelled using the Random Primed DNA Labeling Kit (Boehringer Mannheim, Indianapolis, Ind.). Nuclei were isolated from 2×10^6 B16 cells as described (Sambrook et al., 1989), and lysed in NP40 lysis buffer (10 mM Tris, pH 7.4, 10 mM sodium chloride, 3 mM magnesium chloride, and 0.5% nonidet P-40). Nuclear DNA was then isolated from washed nuclei using the same technique as for total DNA isolation (Sambrook et al., 1989).
Fucoidan inhibited CLDC-mediated transfection in vitro by blocking DNA uptake by cells. Nuclei were isolated from cells untreated or pretreated with fucoidan and subsequently transfected with CLDC, and nuclear DNA was assayed for the presence of the luciferase plasmid used in making the complex. The nuclei of cells untreated with fucoidan contained luciferase plasmid, as expected from the high levels of luciferase activity observed in untreated cells. Therefore, DNA did traverse the cell membranes of untreated cells.

Test [4] deals with ICR female mice. As to the kind of experiment: Pretreatment of mice before intravenous CLDC (p4241): luciferase, Southern analysis, rhodamine-lipid. Type of test: in vivo, mouse. How it is done: In vivo transfections. Each mouse received 50 μg p4241 complexed to DOTIM:cholesterol MLV containing 1 mole % rhodamine-PE at a ratio of 1:16 (μg DNA per nmole total lipid). Approximately 25 g ICR female mice (Simonson, Gilroy, Calif.) received 200 μl of CLDC intravenously by tail vein injection. Pretreatments of mice were also by intravenous tail vein injections. Fucoidan, dissolved in phosphate buffered saline (PBS), was pre-injected at a dosage of 500 μg per mouse 0, 1, 2, 10, 24, or 48 hrs prior to CLDC injection. Heparinase I and III (Sigma) were dissolved in 0.15 M sodium chloride at a concentration of 75 units per 100 μl, and 100 μl per mouse were injected 15 minutes prior to injection of CLDC. Control mice were preinjected at appropriate times with either PBS or 0.15 M sodium chloride. As an additional control, heparinase I was boiled for 10 minutes to denature and deactivate the enzyme prior to pre-injection. Mice were harvested 24 hours post-CLDC injection, and pieces of lung, liver, heart, and spleen were placed in 1X lysis buffer (Promega, Madison, Wis.) on ice for luciferase assays (Liu et al., 1997). Samples of liver and lung were frozen on dry ice prior to Bligh Dyer extractions for rhodamine-liposome fluorescence analysis and isolation of DNA for Southern analysis as described (Liu et al., 1997).

The subject of test [5] is B16 cells, PPC-1 cells. The experiment in a line: Effect on calcium phosphate, adenoviral and electroporation transfection in vitro. Type of test: cell-based. How it is done:
B16 cells were electroporated with p4241 as per BioRad (Hercules, Calif.) instructions for the GenePulser II. Calcium phosphate transfections were performed as described in the manufacturer's instructions (Gibco BRL, Grand Island, N.Y.). Adenoviral infection of PPC-1 cells was performed as previously described (Graham and […], 1991).

Where [6] appears, read: cells pretreated for 30 minutes with 1 μM.
Where [7] appears, read: iv 15 minutes before CLDC injection.

Consider `Nc1ncnc2[nH]ncc12` [Plasmid 4-APP, 4-Aminopyrazolo(3,4d)-pyrimidine], for which, in test [1] (preinjection before iv CLDC (p4241), 24 hours after CLDC), the “luciferase activity versus buffer-pretreated mice” value is recorded as “significantly increased luciferase activity”.

In the case of `OC[C@@H](O)[C@@H](O)[C@H](O)[C@H](O)CO` [mannitol], the “in vivo expression of luciferase from p4241 versus controls” value in test [1] (6.25 mg 2 hours prior to iv naked DNA) was “significantly higher”. The luciferase expression result in test [1] (6.25 mg 24 hours prior to p4241) is “Some increase”.

As to dextran, in test [2], the “CLDC transfection at high concentrations” value is “significant elevation of transfection” and the “CLDC transfection in vitro after pretreatment of cells” value (“CLDC transfection in vitro” for short) was “failed to inhibit transfection”.

Regarding dextran sulfate, the “CLDC transfection in vitro” value in test [2] was “largely blocked”. Moreover, the “concentration sufficient to block transfection” value in test [2] (murine B 16 cells) is given as 10 nM.

As for fucoidan, in test [3] (setting [6]), the “luciferase DNA in nuclei” value was “no luciferase DNA in their nuclei” and the “luciferase expression of cells” value is “did not express luciferase”. The “Southern analysis of total DNA from whole cell extracts” value in test [3] (pretreated cultured cells) was “failed to show evidence of any DNA crossing the cell membranes”. Further, the “luciferase activity in lung and heart tissues” value in test [4] (500 μg per mouse iv, 1 hour before CLDC) is recorded as “drastic reductions in luciferase activity”. In test [4] (10 hours post exposure), the “CLDC mediated transfection of lung cells” value is recorded as “still inhibits CLDC mediated transfection of lung cells”. Also, in test [4] (one hour pretreatment), the “rhodamine-lipid found in the lung and liver” value is recorded as “significantly decreased levels of rhodamine-lipid”. Besides, in test [4] (pretreated for 1 hour), the “p4241 plasmid in total DNA from lungs and livers (Southern analysis)” value is reported as “decreased levels of p4241 plasmid”. For the same compound, in test [4] (pretreated for 1 hour in vivo), the “magnitude of luciferase depression in tissues” value was “approximately 100 fold”. The “decrease in p4241 plasmid in nuclear DNA isolated from lungs” value in test [4] (treated versus untreated animals) is listed as 3 fold. In addition, the “CLDC transfection in vitro” value in test [2] is given as “largely blocked”. Moreover, the “effect on CLDC-mediated transfection, cells pretreated” value in test [2] (10 nM) is listed as “little effect”. Besides, the “transfection by calcium phosphate” value in test [5] is “inhibited the transfection”.

For heparin, the “CLDC-mediated gene transfer following intravenous injection of CLDC into mice” value in test [4] (mouse, in vivo, iv) is listed as “abolished CLDC-mediated gene transfer”. The “CLDC transfection in vitro” value in test [2] is listed as “largely blocked”.

Take heparinase I: in test [4] (setting [7]), the “reporter plasmid DNA in lungs, fold less than control lungs (Southern analysis)” value is 2 fold; the “rhodamine labelled lipid recovered from lungs” value is “significantly decreased the levels of rhodamine labelled lipid”; the “transfection efficiency of CLDC (luciferase) in lungs, hearts and spleens” value is listed as “significantly decreased”.
